From patent US20160108391A1, “REAGENT COMPOSITIONS HAVING PYRIDINE-CARBOXYLIC ACID-[…], AS WELL AS METHODS OF MAKING AND USING THE SAME” (Roche Diabetes Care, Inc., priority 2013, published 2016)

Tested on: glucose dehydrogenase mutant 2
Conditions: cNAD instead of NAD, increasing amounts of nicotinic acid
Experimental: Methods: test elements with added nicotinic acid were prepared and analog to Example 1, but with adding coenzyme cNAD (see, Int'l Patent Application Publication No. WO 2007/012494) instead of NAD (same amount on molar basis).
Consequently, test elements were stored: (a) in open vials at 85% r.h. and 35° C., or (b) in closed vials with desiccant at 35° C.

## O=C(O)c1cccnc1 [nicotinic acid, pyridine-3-carboxylic acid]
Closed vials with desiccant at 35° C., FIG. 3b
  stabilizing effect on remaining enzymatic activity, dry conditions: significant stabilizing effect
Open vials at 85% r.h. and 35° C., FIG. 3a
  stabilizing effect on remaining enzymatic activity, humid conditions: significant stabilizing effect
